Test results published in PMC12663132, “Assessment of cytotoxicity of some synthetic compounds against breast carcinoma spheroids with subsequent analysis of pro-apoptotic and gene expression” (Scientific Reports, 2025).
Where two headings read alike, the source gives them in different places.

How the values were obtained:
[1] = test system: MCF7 breast cancer cells; assay: Gene expression profiling by real-time PCR (p53, Bax, Bcl-2, IL-6, TNF-alpha, MMP1); type: cell-based, human; details: MCF7, IC50 concentration, 24 h, qRT-PCR
Protocol: Total RNA was extracted from both control and treated cells using the RNeasy kit. Up to one million cells were subjected to disruption in Buffer RLT, homogenization, and ethanol treatment to promote selective binding of RNA to the RNeasy membrane. High-purity RNA was subsequently eluted using RNase-free water. All binding, washing, and elution steps were performed using centrifugation in a micro-centrifuge. The sample was then applied to an RNeasy Mini spin column, enabling total RNA retention on the membrane while contaminants were efficiently eliminated. The RNA was then used as a template for real-time PCR to quantify the mRNA levels of genes. Two sets of primers were used—one for the IL-6, TNF-alpha, MMP1, p53, Bcl-2, and Bax genes and another for the endogenous control gene, β-actin (Table 6). The real-time PCR reaction was carried out with the following cycling conditions: 50 °C for 45 min (cDNA synthesis), followed by 40 cycles of 95 °C for 10 s and 60 °C for 60 s. A negative control was included to ensure primer specificity and rule out contamination. Finally, the statistical analysis of the expression of the genes was performed using one-way ANOVA followed by the Tukey–Kramer post-test.

[2] = test system: MCF7 3D spheroids; assay: Cytotoxicity on MCF7 3D multicellular spheroids (acid phosphatase method); details: for cytotoxicity at 50 µM: MCF7, 120 h, read-out: Mean of % cytotoxicity ± S.D
Protocol: (§1) Eighty pre-plated synthetic chemical compounds were screened on two human cell lines: MCF7 (ATCC® HTB-22™), a Caucasian breast adenocarcinoma model, and hTERT-RPE-1 (ATCC® CRL-4000™), a normal retinal epithelial cell line immortalized by hTERT telomerase. […] The cells were cultured in DMEM-F12 medium supplemented with L-glutamine and 10% fetal bovine serum, all were purchase from Biowest (Biotechnology company in Nuaillé, France), and maintained in a controlled incubator environment set at 37 °C with 5% CO2 and 95% humidity.
3-D spheroid models were generated from MCF7 cancer and hTERT-RPE1 normal cells were seeded at 10,000 and 50,000 cells/well, respectively, in poly-HEMA coated round bottom plates according to the protocol previously mentioned[44]. The cells were incubated for 5 days to generate the spheroids with diameter of 500 ± 20 µm. The spheroids were imaged using Olympus S100, U-CMAD3 camera connected to Olympus inverted microscope and the diameter of the spheroids was measured using Cellscen-Entry software. Test compounds were added in triplicate to a final concentration of 50 µM and were incubated for 120 h. […] At the end of incubation, cytotoxicity was determined using the acid phosphatase method[45]. After washing twice with 250 μL PBS buffer, 100 μL of 0.1 M sodium citrate, 0.1% Triton X-100, p-nitrophenylphosphate (2 mg/ml) (Pierce Biotechnology Inc., Rockford, IL) was added to each well and incubated for 1.5 h at 37 °C. After incubation, 10 μL of 1N NaOH stop solution was added to each well, and absorbance was read at 405 nm. Cytotoxicity was calculated according to the following equation:

[3] = test system: hTERT-RPE1 3D spheroids; assay: Cytotoxicity on normal RPE1 3D spheroids (acid phosphatase method); type: cell-based, human; details: 120 h
Protocol: These cell lines were generously provided by Prof. Stig Linder, Karolinska Institute (Sweden).
Cytotoxicity was calculated according to the following equation: […]

[4] = test system: MCF7; assay: Cytotoxicity on MCF7 monolayers (MTT assay); details: for cytotoxicity at 50 µM: Homo sapiens, MCF7, 72 h, read-out: Mean of % cytotoxicity ± SD
Protocol: as §1
MCF7 cells were seeded in flat-bottom 96-well plates with a concentration of 20,000 cells/well, and were left overnight. The compounds were tested at a final concentration of 50 µM. Doxorubicin was used as a positive control and 0.5% DMSO as a negative control. The treatment duration was 72 h. The cytotoxicity was then assessed using the MTT assay, as described by Mosmann[43].

[5] = test system: MCF7 cell line; assay: Pro-apoptotic activity, M30 Cytodeath ELISA (CK18-Asp396); type: cell-based, human; details: MCF7 monolayers, 50 µM, 24 h
Protocol: The pro-apoptotic activity is measured as fold increase of the spontaneous apoptosis occurred in the DMSO treated negative control ± standard deviation.
The cutoff was determined as fourfold increase in the apoptosis signal of the negative control.
The accumulation of CK18-Asp396 in treated MCF7 cell cultures was quantified using the M-30 Cytodeath® ELISA kit according to the manufacturer’s instructions. Briefly, the MCF7 cell line monolayers were exposed to the chemical compounds at a concentration of 50 µM. Following 24 h of incubation, the culture medium was supplemented with 0.1% NP40. Subsequently, aliquots of 25 µL from each well, containing CK18 released into the medium from attached and floating cells and cell fragments, were subjected to the ELISA assay. Cleaved CK18 levels were determined by measuring the absorbance at 450 nm[46].

[6] = read-out: IC50 (µM) for MCF7 ± SD, MCF7 3D spheroids
[7] = Homo sapiens, MCF7, read-out: IC50 (µM) for MCF7 ± SD, MCF7 3D spheroids

| Compound | cytotoxicity at 50 µM ([2]; Homo sapiens) | cytotoxicity at 50 µM [4] | also measured |
| --- | --- | --- | --- |
| N.N.[Cl][Pt][Cl] [cisplatin, reference compound] |  |  | Expression of inflammatory markers (IL-6, TNFα, MMP1) [1]: milder pro-inflammatory effects compared to the tested three compounds; IC50 [2, 6]: 31.7 ± 1.5 µM |
| COc1ccc(OCCC(=O)NNC(=S)Nc2cc(Cl)ccc2Cl)cc1 [F06, N1-(2,5-dichlorophenyl)-2-[3-(4-methoxyphenoxy)propanoyl]hydrazine-1-carbothioamide] | 88 ± 2.5% | 80.1 ± 1.7% | Expression of apoptosis-related genes (Bax, P53, Bcl-2) [1]: greater ability to downregulate Bcl-2 while upregulating both P53 and Bax expression compared to the other compounds; Cytotoxic effect% ± SD RPE1(50µM) [3]: 18.4 ± 0.5%; IC50 [2, 7]: < 26 µM; IC50 [2, 6]: 24.8 ± 0.6 µM |
| O=C(NCCc1c[nH]c2ccccc12)Nc1ccc(Cl)cc1 [D08, N-(4-chlorophenyl)-N'-[2-(1H-indol-3-yl)ethyl]urea] | 74 ± 2.9% | 97.7 ± 0.47% | Cytotoxic effect% ± SD RPE1(50µM) [3]: 39.4 ± 1%; IC50 [2, 7]: 36.9 ± 0.6 µM; Fold increase (apoptosis signal vs DMSO negative control) [5]: 2.14 fold |
| CCOC(=O)c1c(NS(=O)(=O)c2cccc3nsnc23)sc(C)c1C [F03, ethyl 2-[(2,1,3-benzothiadiazol-4-ylsulfonyl)amino]-4,5-dimethylthiophene-3-carboxylate] | 91.5 ± 0.5% | 70 ± 4% | Expression of apoptosis-related genes (Bax, P53, Bcl-2) [1]: moderate pro-apoptotic effect compared to the positive control; Cytotoxic effect% ± SD RPE1(50µM) [3]: 34.4 ± 2.3%; IC50 [2, 7]: < 26 µM; IC50 [2, 6]: 18.8 ± 1.3 µM |
| COC(=O)c1cc(C=C(C#N)C#N)c(OC)cc1OC [H09, methyl 5-(2,2-dicyanovinyl)-2,4-dimethoxybenzoate] | 80.8 ± 0.77% | 86.2 ± 1.7% | Cytotoxic effect% ± SD RPE1(50µM) [3]: 41.2 ± 1.6%; IC50 [2, 7]: 41.2 ± 0.83 µM; Fold increase (apoptosis signal vs DMSO negative control) [5]: 2.56 fold |
| Nc1ccccc1SCC=CCSc1ccccc1N [C02, 2-({4-[(2-aminophenyl)thio]but-2-enyl}thio)aniline] | 87.3 ± 4.5% | 100 ± 0.003% | Expression of apoptosis-related genes (Bax, P53, Bcl-2) [1]: moderate pro-apoptotic effect compared to the positive control; Cytotoxic effect% ± SD RPE1(50µM) [3]: 18.3 ± 0.4%; IC50 [2, 7]: < 26 µM; IC50 [2, 6]: 25.3 ± 1.2 µM |
| Cc1cccc(C)c1NC(=O)COC(=S)c1sc2ccccc2c1Cl [A07, 2-(2,6-dimethylanilino)-2-oxoethyl 3-chlorobenzo[b] thiophene-2-carbothioate] | 75.1 ± 0.53% | 36.5 ± 1.2% | IC50 [2, 7]: 31.7 ± 1.2 µM; Fold increase (apoptosis signal vs DMSO negative control) [5]: 3.64 fold |
| N#CCc1ccc(NC(=O)Nc2ccc(OC(F)(F)F)cc2)cc1 [G08, N-[4-(cyanomethyl)phenyl]-N'-[4-(trifluoromethoxy)phenyl]urea] | 56.2 ± 3% | 82.8 ± 0.76% |  |
| O=C(Nc1ccc2c(c1)COCO2)c1cc2ccccc2oc1=O [H04, N3-(4H-1,3-benzodioxin-6-yl)-2-oxo-2H-chromene-3-carboxamide] | 28 ± 0.6% | 46 ± 0.8% |  |
| CC1(C)C=Cc2cc(C(N)=NOC(=O)c3cccc(C(F)(F)F)c3)ccc2O1 [E10, O6-[3-(trifluoromethyl)benzoyl]-2,2-dimethyl-2H-chromene-6-carbohydroximamide] | 67.5 ± 0.5% | 100 ± 0.003% |  |
| O=C(O)c1nccnc1C(=O)Nc1ccccc1N1CCOCC1 [A08, 3-[(2-morpholinoanilino)carbonyl]-2-pyrazinecarboxylic acid] | 49.3 ± 0.53% | 17.2 ± 1% |  |
| CCCS(=O)(=O)c1cscc1NC(=O)c1c(-c2c(F)cccc2Cl)noc1C [A10, N4-[4-(propylsulfonyl)-3-thienyl]-3-(2-chloro-6-fluorophenyl)-5-methylisoxazole-4-carboxamide] | 68.6 ± 1.1% | 53.8 ± 4.9% |  |
| O=C1C2CCN(CC2)C1CSc1ccc(Cl)cc1 (stereo not drawn) [F02, 2-{[(4-chlorophenyl)thio]methyl}quinuclidin-3-one] | 52 ± 2.9% | 100 ± 0.003% |  |
| Cc1ncc(CO)c(C=NO)c1O [B04, 3-hydroxy-5-(hydroxymethyl)-2-methylisonicotinaldehyde oxime] | 49.3 ± 0.35% | -58.5 ± 0.003% |  |
| Clc1ccc(CSc2ncnc3c2sc2nnc(-c4ccccc4)c(-c4ccccc4)c23)cc1 [A11, 8-[(4-chlorobenzyl)sulfanyl]-3,4-diphenylpyrimido [4',5':4,5]thieno[2,3-c]pyridazine] | 46.4 ± 1.3% | 44.2 ± 1.6% |  |
| COc1ccc(NNC(=O)c2c(-c3c(F)cccc3Cl)noc2C)cc1 [D10, 3-(2-chloro-6-fluorophenyl)-N'-(4-methoxyphenyl)-5-methyl-4-isoxazolecarbohydrazide] | 51.7 ± 1.1% | 52.1 ± 2.11% |  |
| Cc1nc(-c2ccc(S(=O)(=O)Nc3ccc4c(c3)OCCO4)s2)cs1 [G04, N-(2,3-dihydro-1,4-benzodioxin-6-yl)-5-(2-methyl-1,3-thiazol-4-yl)-2-thiophenesulfonamide] | 6.3 ± 0.3% | 0% |  |
| CC(C)=NOC(=O)c1scc(S(C)(=O)=O)c1Cl [B07, 3-chloro-2-({[(1methylethylidene)amino]oxy}carbonyl)-4-(methylsulfonyl)thiophene] | 34.9 ± 1.7% | 0% |  |
| CC(=O)Nc1ccc(-c2ccccc2)cc1 [D05, N-[1,1'-biphenyl]-4-ylacetamide] | 50.9 ± 2.4% | 49.7 ± 4.1% |  |
| O=C1NC(=O)C(=Cc2ccncc2)C(=O)N1 [B09, 5-(4-pyridylmethylidene)hexahydropyrimidine-2,4,6-trione] | 59.2 ± 1.2% | 12.3 ± 0.7% |  |
| CCOC(=O)c1cnn(C(=O)c2snnc2C)c1N [A05, Ethyl 5-amino-1-[(4-methyl-1,2,3-thiadiazol-5-yl)carbonyl]-1H-pyrazole-4-carboxylate] | 49 ± 0.8% | 62.3 ± 2.5% |  |
| COC(=O)c1sccc1S(=O)(=O)Nc1ccc(-c2cn3c(n2)SCC3)cc1 [G05] |  |  | % inhibition 3D ([2]; MCF7 3D spheroids, 50 µM): 35.1%; Mean of % cytotoxicity ± S.D ([2]; MCF7 3D spheroids, 50µM, 120 h): 35.1 ± 0.6%; % inhibition 2D ([4]; MCF7 monolayer, 50 µM): 65.7%; Mean of % cytotoxicity ± SD ([4]; MCF7 monolayer, 50µM, 72 h, MTT): 65.7 ± 1.0% |
